This note sets out measurements from US6972288B1, “4-amino-quinazoline and quinoline derivatives having an inhibitory effect on signal transduction mediated by tyrosine kinases” (Boehringer Ingelheim Pharma KG, priority 1999, dated 2005).

pIC50: −log10 of the molar value.

The target of one data set is T1, human EGF-R (Homo sapiens, UniProt P00533).
T1 construct: expressed in transfected cells; host or cells: F/L-HERc cells, derived from the murine IL-3-dependent line FDC-P1 ('FDC-PI' [sic]); retroviral vector LXSN, packaging line GP+E86
T1 sequence (P00533 25-1210): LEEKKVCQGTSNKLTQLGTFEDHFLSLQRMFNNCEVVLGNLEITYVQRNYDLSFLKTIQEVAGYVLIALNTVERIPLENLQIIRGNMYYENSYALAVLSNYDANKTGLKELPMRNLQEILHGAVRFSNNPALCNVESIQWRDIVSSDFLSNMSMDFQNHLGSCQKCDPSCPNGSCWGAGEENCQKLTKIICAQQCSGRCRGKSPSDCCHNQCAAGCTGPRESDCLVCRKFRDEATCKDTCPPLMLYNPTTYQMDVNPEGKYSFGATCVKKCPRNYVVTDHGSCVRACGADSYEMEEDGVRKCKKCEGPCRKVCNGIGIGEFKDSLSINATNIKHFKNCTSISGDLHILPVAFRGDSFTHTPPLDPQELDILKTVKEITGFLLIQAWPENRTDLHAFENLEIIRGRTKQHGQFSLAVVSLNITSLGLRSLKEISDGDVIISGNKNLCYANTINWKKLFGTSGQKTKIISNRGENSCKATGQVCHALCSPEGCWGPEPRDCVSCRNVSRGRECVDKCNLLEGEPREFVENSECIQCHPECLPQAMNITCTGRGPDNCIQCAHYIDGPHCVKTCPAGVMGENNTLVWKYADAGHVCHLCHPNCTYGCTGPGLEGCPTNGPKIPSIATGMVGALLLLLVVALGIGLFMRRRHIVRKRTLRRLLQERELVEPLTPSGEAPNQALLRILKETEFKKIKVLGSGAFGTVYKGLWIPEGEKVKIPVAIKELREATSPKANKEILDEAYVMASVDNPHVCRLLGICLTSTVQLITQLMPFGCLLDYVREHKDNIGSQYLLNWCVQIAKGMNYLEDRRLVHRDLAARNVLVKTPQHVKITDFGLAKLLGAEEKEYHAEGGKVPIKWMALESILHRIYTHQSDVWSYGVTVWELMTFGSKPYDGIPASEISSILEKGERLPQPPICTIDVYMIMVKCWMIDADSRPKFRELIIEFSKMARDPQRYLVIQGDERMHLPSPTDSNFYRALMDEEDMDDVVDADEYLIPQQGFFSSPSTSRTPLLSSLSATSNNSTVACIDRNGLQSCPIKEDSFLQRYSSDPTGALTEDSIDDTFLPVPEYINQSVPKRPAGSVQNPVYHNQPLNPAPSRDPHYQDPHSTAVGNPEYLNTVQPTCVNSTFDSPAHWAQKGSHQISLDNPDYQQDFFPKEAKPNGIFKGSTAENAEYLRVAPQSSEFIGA
As to the kind of experiment: Inhibition of EGF-dependent proliferation of F/L-HERc cells (Cell Titer 96 AQueous assay). It is filed as cell-based. The note with it: F/L-HERc cells (murine IL-3-dependent line expressing human EGF-R), stimulated with EGF 20 ng/ml, 48 hours at 37° C. The text has this: A cell line of murine origin dependent on interleukin-3 (IL-3) which was genetically modified to express functional human EGF-R was used here. The proliferation of these cells known as F/L-HERc can therefore be stimulated either by murine IL-3 or by EGF (cf. von Rüden, T. et al. in EMBO J. 7, 2749-2756 (1988) and Pierce, J. H. et al. in Science 239. 628-631 (1988)).
The starting material used for the F/L-HERc cells was the cell line FDC-PI, the production of which has been described by Dexter, T. M. et al, in J. Exp. Med. 152, 1036-1047 (1980). alternatively, however, other growth-factor-dependent cells may also be used (cf. for example Pierce, J. H. et al. in Science 239, 628-631 (1988), Shibuya, H. et al. in Cell 70, 57-67 (1992) and alexander, W. S. et al. in EMBO J. 10, 3683-3691 (1991)). For expressing the human EGF-R cDNA (cf. Ullrich, A. et al. in Nature 309, 418-425 (1984)) recombinant retroviruses were used as described by von Rüden, T. et al., EMBO J. 7, 2749-2756 (1988), except that the retroviral vector LXSN (cf. Miller, A. D. et al. in BioTechniques 1, 980-990 (1989)) was used for the expression of the EGF-R cDNA and the line GP+E86 (cf, Markowitz, D, et al. in J. Virol. 62, 1120-1124 (1988)) was used as the packaging cell.
The test was performed as follows: • F/L-HERC cells were cultivated in RPMI/1640 medium (BioWhittaker), supplemented with 10% foetal calf serum (FCS, Boehringer Mannheim). 2 mM glutamine (BioWhittaker), standard antibiotics and 20 ng/ml of human EGF (Promega), at 37° C. and 5% CO2. In order to investigate the inhibitory activity of the compounds according to the invention, 1.5×10^4 cells per well were cultivated in triplicate in 96-well plates in the above medium ([…]), the cell proliferation being stimulated with either EGF (20 ng/ml) or murine IL-3. The IL-3 used was obtained from culture supernatants of the cell line X63/0 mIL-3 (cf. Karasuyama, 4. et al. in Eur. J. Immunol. 18, 97-104 (19881). The compounds according to the invention were dissolved in 100% dimethylsulphoxide (DMSO) and added to the cultures in various dilutions, the maximum DMSO concentration being 1%. The cultures were incubated for 48 hours at 37° C.
In order to determine the inhibitory activity of the compounds according to the invention the relative cell number was measured in O.D. units using the Cell Titer 96™ AQueous Non-Radioactive Cell Proliferation Assay (Promega). The relative cell number was calculated as a percentage of the control (F/LHERc cells without inhibitor) and the concentration of active substance which inhibits the proliferation of the cells by 50% (IC50) was derived therefrom.

One may read the pIC50 as the negative decadic logarithm of the IC50, by convention in mol/L. One may read the melting point as the temperature, or range, at which the solid turns liquid. `C=CC(=O)Nc1cc2c(Nc3cccc(Br)c3)ncnc2cc1OCCCN1CCN(CC(=O)OCC)CC1` [Example 1, 4-[(3-Bromophenyl)amino]-7-(3-{4-[(ethoxycarbonyl)methyl]-piperazin-1-yl)propyloxy)-6-[(vinylcarbonyl)amino]-quinazoline] came in with a melting point of 80 to 85 °C. Also, the pIC50 against human EGF-R is 8.59.
The matching figures for `CCOC(=O)CN(C)CC=CC(=O)Nc1ccc2ncnc(Nc3cccc(Br)c3)c2c1` [Example 2, 4-[(3-Bromophenyl)amino]-6-[(4-{N-[(ethoxycarbonyl)methyl]-N-methylamino}-1-oxo-2-buten-1-yl)-amino]-quinazoline]: 182 to 183 °C and 8.28.
The matching figures for `CCOC(=O)CN(CC=CC(=O)Nc1cc2c(Nc3ccc(F)c(Cl)c3)ncnc2cc1OCC1CC1)CCOC(C)=O` [Example 11, 4-[(3-chloro-4-fluorophenyl)amino]-6-[(4-(N-[(ethoxycarbonyl)-methyl]-N-[2-(methylcarbonyloxy)ethyl]amino]-1-oxo-2-buten-1-yl)amino]-7-cyclopropylmethoxy-quinazoline]: 90 to 92 °C and 7.13.
`CCOC(=O)CN1CCN(C(C)(C)C=CC(=O)Nc2cc3c(Nc4ccc(F)c(Cl)c4)ncnc3cc2OCC2CC2)CC1` [Example 17, 4-[(3-Chloro-4-fluoro-phenyl)amino]-6-[(4,4-dimethyl-4-{4-[(ethoxycarbonyl)methyl]-piperazin-1-yl)-1-oxo-2-buten-1-yl)amino]-7-cyclopropylmethoxy-quinazoline] had a melting point of 165 to 167 °C.
Still for that read-out and setting: with `CCOC(=O)C1CN(C(C)=O)CCN1CC=CC(=O)Nc1cc2c(Nc3ccc(F)c(Cl)c3)ncnc2cc1OCC1CC1` (centres unmarked) [Example 18, 4-[(3-Chloro-4-fluoro-phenyl)amino]-6-({4-[2-(ethoxycarbonyl)-4-(methylcarbonyl)-piperazin-1-yl]-1-oxo-2-buten-1-yl}amino)-7-cyclopropylmethoxy-quinazoline] the figure was 152 to 156 °C.
